pKd: −log10 of the molar value. Like-named read-outs stand apart in the source and are kept apart here.
How the values were obtained:
[1] = tested on: HIV-1NL4-3; test: HIV-1 infectivity assay in TZM-bl reporter cell line (LTR-luciferase, 48 h); format: cell-based; conditions: Human immunodeficiency virus 1, TZM-bl
Summary of the method: (§1)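 Nef-dependent infectivity in TZM-bl cells: HIV-1NL4-3 infection with 1 μM compound, luciferase read at 48 h, normalized against DMSO wild-type and Nef-defective controls. Compound cytotoxicity in uninfected cells measured by Cell Titer Blue.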

[2] = biological target: HIV-1 NefNL4-3 (Human immunodeficiency virus type 1 group M subtype B, UniProt P03406, A33V/T15A/T51N/V11I); test: Surface plasmon resonance binding to recombinant full-length Nef (NL4-3); conditions: for Nef NL4-3 Binding, SPR 1:1 or 2-site fitting KD1: 1:1 Langmuir fit where the KD2 cell says '1 to 1 fitting', else 2-site fit; for RU30/RUNef (extent of binding): response units at 30 μM relative to Nef immobilized on the SPR chip
[3] = tested on: TZM-bl cell line; format: cell-based; conditions: human, 1 μM
Summary of the method: as §1

[4] = 48 h, Table 1, TZM-bl cells, 1 μM, 48 h, 100% = Nef-defective HIV-1, read-out: HIV-1 Infectivity % Inhibition Norm. to Δ-Nef @ 1 μM
[5] = 1.0 μM, TZM-bl reporter cell line, Table 4, read-out: % Infectivity Inhibition
[6] = KD, M, Table 4, SPR fit 2-step induced fit, KD = koff/kon × koff2/(koff2 + kon2)
[7] = Table 4, 2-step induced fit, T = 1/koff2
[8] = read-out: Nef NL4-3 Binding, SPR 1:1 or 2-site fitting KD2, Table 1, 2-site fit, second component
[9] = Nef NL4-3 Binding, SPR 2-state fitting KD, Table 1, 2-step induced-fit model
[10] = KD, M, Table 4, SPR fit 1:1 Langmuir, KD = koff/kon
[11] = Table 4, 1:1 Langmuir fit, T = 1/koff

SMILES | inhibition at 1 µM [1, 4] | pKd [2] | Percent Viability @ 1 μM (TZM-bl cells) [3] | Nef NL4-3 Binding, SPR 1:1 or 2-site fitting KD1 ([2]; Table 1) | inhibition at 1 µM [1, 5] | pKd [2, 6] | T, minutes (residence time) [2, 7] | pKd [2, 8] | RU30/RUNef (extent of binding) [2] | % Cell Viability [3] | pKd [2, 9] | pKd [2, 10] | T, minutes (residence time) [2, 11]
Oc1c(CCc2ccc(F)cc2)c(CN2CCOCC2)nn1-c1nc2ccccc2[nH]1 [Compound I-157, 1-(1H-1,3-benzodiazol-2-yl)-4-[2-(4-fluorophenyl)ethyl]-3-[(morpholin-4-yl)methyl]-1H-pyrazol-5-ol] | 13.2% | 5.11 | 100.7% |  |  |  |  |  |  |  |  |  | 
O=C(OCc1ccccc1)N1CCC(c2nn(-c3nc4ccccc4[nH]3)c(O)c2CCc2ccc(F)cc2)CC1 [Compound I-158, benzyl 4-[1-(1H-1,3-benzodiazol-2-yl)-4-[2-(4-fluorophenyl)ethyl]-5-hydroxy-1H-pyrazol-3-yl]piperidine-1-carboxylate] | 101% |  | 92.0% | No Interaction |  |  |  |  |  |  |  |  | 
O=C(OCc1ccccc1)N1CCCC(c2nn(-c3nc4ccccc4[nH]3)c(O)c2CCc2ccc(F)cc2)C1 (stereo not drawn) [Compound I-160, benzyl 3-[1-(1H-1,3-benzodiazol-2-yl)-4-[2-(4-fluorophenyl)ethyl]-5-hydroxy-1H-pyrazol-3-yl]piperidine-1-carboxylate] | 33.4% | 11.20 | 93.7% |  | 33.4% | 11.62 | 7.41E + 06 minutes | 5.58 | 1.74E- 02 | 93.7% |  |  | 
Cc1ccn(CCc2c(-c3ccc(C(F)(F)F)cc3)nn(-c3nc4ccc(Cl)cc4[nH]3)c2O)n1 [Compound I-163, 1-(6-chloro-1H-1,3-benzodiazol-2-yl)-4-[2-(3-methyl-1H-pyrazol-1-yl)ethyl]-3-[4-(trifluoromethyl)phenyl]-1H-pyrazol-5-ol] | 0.3% | 6.00 | 96.6% |  | 0.3% | 5.24 | 1.44E + 01 minutes |  | 4.48E- 03 | 96.6% | 5.24 |  | 
O=C(OCc1ccccc1)N1CCC(c2c(-c3ccc(C(F)(F)F)cc3)nn(-c3nc4ccccc4[nH]3)c2O)CC1 [Compound I-164, benzyl 4-[1-(1H-1,3-benzodiazol-2-yl)-5-hydroxy-3-[4-(trifluoromethyl)phenyl]-1H-pyrazol-4-yl]piperidine-1-carboxylate] | 64.9% |  | 93.6% | No Interaction |  |  |  |  |  |  |  |  | 
Oc1c(CCc2ccc(F)cc2)c(-c2ccccc2)nn1-c1nc2cc(Cl)ccc2[nH]1 [Compound I-165, 1-(5-chloro-1H-1,3-benzodiazol-2-yl)-4-[2-(4-fluorophenyl)ethyl]-3-phenyl-1H-pyrazol-5-ol] | 25.3% | 6.16 | 89.6% |  | 25.3% | 6.20 | 5.10E + 00 minutes |  | 4.14E- 02 | 89.6% | 6.20 |  | 
CS(=O)(=O)c1ccc(-c2nn(-c3nc4cc(Cl)ccc4[nH]3)c(O)c2CCC2CCOCC2)cc1 [Compound I-168, 1-(5-chloro-1H-1,3-benzodiazol-2-yl)-3-(4-methanesulfonylphenyl)-4-[2-(oxan-4-yl)ethyl]-1H-pyrazol-5-ol] | 19.2% | 6.12 | 97.9% |  | 19.2% | 5.56 | 4.96E + 00 minutes | 5.30 | 6.97E- 03 | 97.9% | 5.56 |  | 
CS(=O)(=O)c1ccc(-c2nn(-c3nc4cc(F)ccc4[nH]3)c(O)c2CCC2CCOCC2)cc1 [Compound I-169, 1-(5-fluoro-1H-1,3-benzodiazol-2-yl)-3-(4-methanesulfonylphenyl)-4-[2-(oxan-4-yl)ethyl]-1H-pyrazol-5-ol] | -4.8% | 6.33 | 98.7% |  |  |  |  | 5.74 |  |  | 5.13 |  | 
COC(=O)c1ccc(CCc2c(-c3ccccc3)nn(-c3nc4cc(Cl)ccc4[nH]3)c2O)cc1 [Compound I-171, methyl 4-{2-[1-(5-chloro-1H-1,3-benzodiazol-2-yl)-5-hydroxy-3-phenyl-1H-pyrazol-4-yl]ethyl}benzoate] | 131% | 6.05 | 75.8% |  | 100% | 7.88 | 7.82E + 02 minutes |  | 2.77E- 02 | 75.8% | 7.88 |  | 
Oc1c(CCc2ccc(F)cc2)c(-c2ccc(F)cc2)nn1-c1nc2cc(Cl)ccc2[nH]1 [Compound I-172, 1-(5-chloro-1H-1,3-benzodiazol-2-yl)-3-(4-fluoropheny1)-4-[2-(4-fluorophenyl)ethyl]-1H-pyrazol-5-ol] | 56% | 6.60 | 96.5% |  | 56% | 7.16 | 1.73E + 01 minutes |  | 4.28E- 02 | 96.5% | 7.16 |  | 
Oc1c(CC2CCOCC2)c(-c2ccc(F)cc2)nn1-c1nc2cc(F)ccc2[nH]1 [Compound I-173, 1-(5-fluoro-1H-1,3-benzodiazol-2-yl)-3-(4-fluorophenyl)-4-[(oxan-4-yl)methyl]-1H-pyrazol-5-ol] |  |  |  |  | 97.2% | 9.46 | 7.12E + 04 minutes |  | 5.24E- 03 | 85.7% |  |  | 
Oc1c(CC2CCOCC2)c(C2CC2)nn1-c1nc2ccccc2[nH]1 [Compound I-174, 1-(1H-1,3-benzodiazol-2-yl)-3-cyclopropyl-4-[(oxan-4-yl)methyl]-1H-pyrazol-5-ol] | 11.9% | 5.86 | 101.5% |  | 11.9% |  |  |  | 3.94E- 03 | 100% |  | 5.86 | 6.54E + 00 minutes
Oc1c(CC2CCCOC2)c(-c2ccc(F)cc2)nn1-c1nc2ccccc2[nH]1 (stereo not drawn) [Compound I-175, 1-(1H-1,3-benzodiazol-2-yl)-3-(4-fluorophenyl)-4-[(oxan-3-yl)methyl]-1H-pyrazol-5-ol] |  |  |  |  | 67.2% |  |  |  | 6.67E- 04 | 88.8% |  | 6.22 | 7.72E + 00 minutes
Oc1c(CC2CCOCC2)c(C2CC(F)(F)C2)nn1-c1nc2ccccc2[nH]1 [Compound I-176, 1-(1H-1,3-benzodiazol-2-yl)-3-(3,3-difluorocyclobutyl)-4-[(oxan-4-yl)methyl]-1H-pyrazol-5-ol] |  |  |  |  | 0% |  |  |  | 1.52E- 03 | 98.4% |  | 5.65 | 5.08E + 00 minutes
Oc1c(CC2CCOCC2)c(CCC2CCOCC2)nn1-c1nc2ccccc2[nH]1 [Compound I-178, 1-(1H-1,3-benzodiazol-2-yl)-3-[2-(oxan-4-yl)ethyl]-4-[(oxan-4-yl)methyl]-1H-pyrazol-5-ol] |  |  |  |  | 0% | 4.96 | 7.72E + 00 minutes |  | 8.86E- 03 | 97.9% |  |  | 
CC(C)(C)c1nn(-c2nc3ccccc3[nH]2)c(O)c1CC1CCOCC1 [Compound I-180, 1-(1H-1,3-benzodiazol-2-yl)-3-tert-butyl-4-[(oxan-4-yl)methyl]-1H-pyrazol-5-ol] |  |  |  |  | 74.8% |  |  |  | 2.62E- 03 | 100% |  | 5.14 | 2.48E + 00 minutes
Oc1c(CCC2CCOCC2)c(-c2ccc(F)cc2)nn1-c1nc2ccccc2[nH]1 [Compound I-182, 1-(1H-1,3-benzodiazol-2-yl)-3-(4-fluorophenyl)-4-[2-(oxan-4-yl)ethyl]-1H-pyrazol-5-ol] |  |  |  |  | 100% | 5.35 | 9.98E + 00 minutes |  | 1.11E- 02 | 90% |  |  | 
Oc1c(CC2CCOCC2)c(-c2ccccc2)nn1-c1nc2ccccc2[nH]1 [Compound I-183, 1-(1H-1,3-benzodiazol-2-yl)-4-[(oxan-4-yl)methyl]-3-phenyl-1H-pyrazol-5-ol] |  |  |  |  | 37.8% |  |  |  | 1.71E- 03 | 100% |  | 5.64 | 7.61E + 00 minutes
Oc1c(CC2CCOCC2)c(-c2cccc(F)c2)nn1-c1nc2ccccc2[nH]1 [Compound I-184, 1-(1H-1,3-benzodiazol-2-yl)-3-(3-fluorophenyl)-4-[(oxan-4-yl)methyl]-1H-pyrazol-5-ol] |  |  |  |  | 100% |  |  |  | 2.48E- 03 | 100% |  | 5.45 | 6.46E + 00 minutes

From patent US20220380341A1, “INHIBITORS OF HIV-1 NEF FOR THE TREATMENT OF HIV DISEASE” (priority 2018, published 2022)
